Patent US5859012A, “Inhibitors of farnesyl-protein transferase” (Merck & Co., Inc., priority 1997, dated 1999)
pIC50: −log10 of the molar value. Structures can show the parent of a compound that is named as a salt.

Biological target: T1, human FPTase (Homo sapiens, UniProt P49354+P49356)
T1 construct: made in house
Assay: In vitro inhibition of ras farnesyl transferase (human FPTase assay, [3H]-FPP incorporation into Ras-CVIM)
Type: biochemical
Settings: 100 nM Ras-CVIM, 30 min, read-out: IC50, inhibitory activity against human FPTase

Row | pIC50 | Structure (SMILES)
1 | ≥ 5.00 | CCCC[C@H]1CN(c2cccc(C)c2C)C(=O)C(=O)N1Cc1cncn1Cc1ccc(C#N)cc1 [Example 2, (S)-5-n-butyl-4-[1-(4-cyanobenzyl)-5-imidazolylmethyl]-1-(2,3-dimethylphenyl)-2,3-piperazinedione hydrochloride]
2 | ≥ 5.00 | N#Cc1ccc(Cn2cncc2CN2CCN(c3cccc(Cl)c3)C(=O)C2=O)cc1 [Example 1, 4-[1-(4-Cyanobenzyl)-5-imidazolylmethyl]-1-(3-chlorophenyl)-piperazine-2,3-dione hydrochloride]
